Structures can show the parent of a compound that is named as a salt.
Tests used:
Type in all cases: cell-based
Adenosine 2a receptor = target: T1, Adenosine 2a receptor (Homo sapiens, UniProt P29274); experiment: Agonist activity against adenosine 2a receptor subtype (CHO cells, cAMP response element/SPAP reporter); details: EC50 ratio to NECA; transfected CHO cells, basal cAMP reflected by SPAP
T1 construct: expressed in transfected cells; host or cells: Chinese hamster ovary (CHO) cells, co-transfected with a CRE-SPAP reporter
T1 sequence (P29274 whole entry): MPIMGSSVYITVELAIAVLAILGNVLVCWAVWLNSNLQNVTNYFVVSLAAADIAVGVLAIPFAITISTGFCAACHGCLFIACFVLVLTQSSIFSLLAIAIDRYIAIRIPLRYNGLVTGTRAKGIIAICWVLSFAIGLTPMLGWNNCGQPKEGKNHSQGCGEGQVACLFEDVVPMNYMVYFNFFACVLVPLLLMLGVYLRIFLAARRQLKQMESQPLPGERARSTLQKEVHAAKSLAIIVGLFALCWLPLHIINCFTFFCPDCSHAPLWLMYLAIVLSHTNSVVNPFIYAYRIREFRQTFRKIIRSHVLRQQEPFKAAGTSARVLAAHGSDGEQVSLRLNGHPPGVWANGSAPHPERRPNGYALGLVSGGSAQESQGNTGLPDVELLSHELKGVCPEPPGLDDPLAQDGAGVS
How it was run: (§1)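 CHO cells expressed the human receptor plus a cAMP response element–driven SPAP reporter. Agonism was measured as SPAP change from forskolin-enhanced cAMP for A1 and A3, and from basal cAMP for A2a. EC50 is expressed as a ratio to that of NECA.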

Adenosine 3 receptor = target: T2, Adenosine 3 receptor (Homo sapiens, UniProt P0DMS8); experiment: Agonist activity against adenosine 3 receptor subtype (CHO cells, forskolin-enhanced cAMP, SPAP reporter); details: EC50 ratio to NECA; transfected CHO cells, forskolin-enhanced cAMP reflected by SPAP
T2 construct: expressed in transfected cells; host or cells: Chinese hamster ovary (CHO) cells, co-transfected with a CRE-SPAP reporter
T2 sequence (P0DMS8 1-318): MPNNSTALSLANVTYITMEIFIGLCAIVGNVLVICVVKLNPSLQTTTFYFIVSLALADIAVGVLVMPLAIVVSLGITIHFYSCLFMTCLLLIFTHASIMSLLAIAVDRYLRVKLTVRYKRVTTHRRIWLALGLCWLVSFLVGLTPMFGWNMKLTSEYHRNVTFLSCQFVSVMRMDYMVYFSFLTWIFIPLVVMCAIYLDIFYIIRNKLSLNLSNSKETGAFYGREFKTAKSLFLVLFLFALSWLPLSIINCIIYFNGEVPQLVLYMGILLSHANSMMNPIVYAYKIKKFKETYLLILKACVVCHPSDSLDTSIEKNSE
How it was run: as §1

Adenosine 1 receptor = target: T3, Adenosine 1 receptor (Homo sapiens, UniProt P30542); experiment: Agonist activity against adenosine 1 receptor subtype (CHO cells, forskolin-enhanced cAMP, SPAP reporter); details: EC50 ratio to NECA; transfected CHO cells, forskolin-enhanced cAMP reflected by SPAP
T3 construct: expressed in transfected cells; host or cells: Chinese hamster ovary (CHO) cells, co-transfected with a CRE-SPAP reporter
T3 sequence (P30542 1-326): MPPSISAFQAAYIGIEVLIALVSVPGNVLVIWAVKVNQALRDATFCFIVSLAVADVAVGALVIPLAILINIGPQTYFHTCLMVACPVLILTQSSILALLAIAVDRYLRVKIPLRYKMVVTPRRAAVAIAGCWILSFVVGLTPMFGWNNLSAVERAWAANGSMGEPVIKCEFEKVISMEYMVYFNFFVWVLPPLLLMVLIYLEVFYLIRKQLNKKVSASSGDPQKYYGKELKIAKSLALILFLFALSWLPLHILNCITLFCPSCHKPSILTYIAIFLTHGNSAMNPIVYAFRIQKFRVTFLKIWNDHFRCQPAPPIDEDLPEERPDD
How it was run: as §1

SMILES	A2a (EC50 values as a ratio of that of NECA) (Adenosine 2a receptor)	A3 (EC50 values as a ratio of that of NECA) (Adenosine 3 receptor)	A1 (EC50 values as a ratio of that of NECA) (Adenosine 1 receptor)
CCc1cc(C2OC(n3cnc4c(NC5CCS(=O)(=O)CC5)nc(NC5CCC(N)CC5)nc43)C(O)C2O)on1 [Example 32, (2R,3R,4S,5S)-2-[2-trans-4-Amino-cyclohexylamino)-6-(1-dioxo-hexahydro-1λ6-thiopyran-4-ylamino)-purin-9-yl]-5-(3-ethyl-isoxazol-5-yl)-tetrahydro-furan-3,4-diol diformate]	3.79	>176	31.75
CCc1cc(C2OC(n3cnc4c(NC(CC)CC)nc(NC(CO)Cc5ccccc5)nc43)C(O)C2O)on1 [Example 35, (2S,3S,4R,5R)-2-(3-Ethyl-4-isoxazol-5-yl)-5-[6-(1-ethyl-propylamino)-2-(1S-hydroxymethyl-2-phenyl-ethylamino)-purin-9-yl]-tetrahydro-furan-3,4-diol formate]	2.53	>223	89.16
CCc1cc(C2OC(n3cnc4c(NC(CC)CC)nc(NC5CCNC5)nc43)C(O)C2O)on1 [Example 36, (2S,3S,4R,5R)-2-(3-Ethyl-isoxazol-5-yl)-5-[6-(1(-ethyl-propylamino)-2-(pyrrolidin-3R-ylamino)-purin-9-yl]-tetrahydro-furan-3,4-diol diformate]	4.7	>207	68.32
CCc1cc(C2OC(n3cnc4c(NC(CC)CC)nc(NCCc5ccccn5)nc43)C(O)C2O)on1 [Example 37, (2S,3S,4R,5R)-2-(3-Ethyl-isoxazol-5-yl)-5-[61-ethyl-propylamino)-2-(2-pyridin-2-yl-ethylamino)-purin-9-yl]-tetrahydro-furan-3,4-diol diformate]	2.65	>207	136.56
CCc1cc(C2OC(n3cnc4c(NC(CC)CC)nc(NCCN5CCOCC5)nc43)C(O)C2O)on1.O=CO.O=CO [Example 38, (2S,3S,4R,5R)-2-(3Ethyl-isoxazol-5-yl)-5-[6(1-ethyl-propylamino)-2-(2-morpholin-4-yl-ethylamino)-purin-9-yl]-tetrahydro-furan-3,4-diol diformate]	5.29	>737	44.1
CCc1cc(C2OC(n3cnc4c(NC(CC)CC)nc(NC5CCC(N)CC5)nc43)C(O)C2O)on1.O=CO.O=CO [Example 39, (2R,3R,4S,5S)-2-[2(trans-4-Amino-cyclohexylamino)-6(1-ethyl-propylamino)-purin-9-yl]-5-(3-ethyl-isoxazol-5-yl)-tetrahydro-furan-3,4-diol diformate]	2.12	>85	86.8
CCc1cc(C2OC(n3cnc4c(NC(CC)CC)nc(NCCNC(=N)N)nc43)C(O)C2O)on1 (stereo not drawn) [Example 40, N-{2-[9-[5S-(3-Ethyl-isoxazol-5-yl)-3R,4S-dihydroxy-tetrahydro-furan-2R-yl]6-(1-ethyl-propylamino)-9H-purin-2-ylamino]-ethyl}-guanidine diformate]	3.38	>88	70.53
CCc1cc([C@H]2O[C@@H](n3cnc4c(NCCC(C)(C)C)nc(NCCN5CCCCC5)nc43)[C@H](O)[C@@H]2O)on1.O=CO.O=CO [Example 41, (2R,3R,4S,5S)-2-[6-(3,3-Dimethyl-butylamino)-2-(2-piperidin-1-yl-ethylamino)-purin-9-yl]-5-(3-ethyl-isoxazol-5-yl)-tetrahydro-furan-3,4-diol diformate]	27.39	>395	2907.96
CCc1cc(C2OC(n3cnc4c(NCCC(C)(C)C)nc(NCCN5CCOCC5)nc43)C(O)C2O)on1 [Example 42, (2R,3R,4S,5S)-2-[6-(3,3-Dimethyl-butylamino)-2-(2-morpholin-4-ethylamino)-purin-9-yl]-5-(3-ethyl-isoxazol-5-yl)-tetrahydro-furan-3,4-diol diformate]]	41.06	>395	1369.08
CCc1cc(C2OC(n3cnc4c(NCc5ccccc5)nc(NCCc5cn(C)cn5)nc43)C(O)C2O)on1 [Example 43, (2R,3R,4S,5S)-2-{6-Benzylamino-2-[2-(1-methyl-1H-imidazol-1-yl)-ethylamino]-purin-9-yl}-5-(3-ethyl-isoxazol-5-yl)-tetrahydro-furan-3,4-diol diformate]	3.53	>335	672.4
CCc1cc([C@H]2O[C@@H](n3cnc4c(NC(CC)CC)nc(NC5CCCC5)nc43)[C@H](O)[C@@H]2O)on1.O=CO [Example 46, (2R,3R,4S,5S)-2-[2-(Cyclopentylamino)-6-(1-ethyl-propylamino)-purin-9-yl]-5-(3-ethyl-isoxazol-5-yl)-tetrahydro-furan-3,4-diol formate]	20.06	>518	148.72
CCc1cc([C@H]2O[C@@H](n3cnc4c(NC(CC)CC)nc(NC5CCOCC5)nc43)[C@H](O)[C@@H]2O)on1.O=CO [Example 48, (2R,3R,4S,5S)-2-[2-(4-tetrahydropyranyl-amino)-6-(1-ethyl-propylamino)-purin-9-yl]-5-(3-ethyl-isoxazol-5-yl)-tetrahydro-furan-3,4-diol formate]	11.48	>363	177.71

Continued, values first:

A2a (EC50 values as a ratio of that of NECA) (Adenosine 2a receptor)	A3 (EC50 values as a ratio of that of NECA) (Adenosine 3 receptor)	A1 (EC50 values as a ratio of that of NECA) (Adenosine 1 receptor)	SMILES
10.3	>221	725.4	CCc1cc(C2OC(n3cnc4c(NCc5ccccc5)nc(NCCN5CCCCC5)nc43)C(O)C2O)on1.O=CO.O=CO [Example 44, (2R,3R,4S,5S)-2-[6-Benzylamino-2-(2-piperidin-1-yl-ethylamino)-purin-9-yl]-5-(3-ethyl-isoxazol-5-yl)-tetrahydro-furan-3,4-diol diformate]
1.93	>189	54.04	CCc1cc(C2OC(n3cnc4c(NC(CO)Cc5ccccc5)nc(NCCN5CCCCC5)nc43)C(O)C2O)on1 [Example 45, (2S,3S,4R,5R)-2-(3-Ethyl-isoxazol-5-yl)-5-[6-(1S-hydroxymethyl-2-phenyl-ethylamino)-2-(2-piperidin-1-yl-ethylamino)-purin-9-yl]-tetrahydro-furan-3,4-diol diformate]
7.79	>350	28.28	CCc1cc(C2OC(n3cnc4c(NC(CC)CC)nc(NC5CCN(Cc6ccccc6)C5)nc43)C(O)C2O)on1 [Example 49, (2R,3R,4S,5S)-2-[2-(1-Benzyl-pyrrolidin-3S-1-ylamino)-6-(1-ethyl-propylamino)purin-9-yl]-5-(3-ethyl-isoxazol-5-yl)-tetrahydro-furan-3,4-diol formate]
7.26	>113	>6188	CCC(CC)Nc1nc(NCCc2cn(C)cn2)nc2c1ncn2C1OC(c2cc(C=NO)no2)C(O)C1O (stereo not drawn) [Example 50, 5-(5R-{6-Ethyl-propylamino)-2-[2(1-methyl-1H-imidazol-4-yl)-ethylamino]-purin-9-yl}-3S,4R-dihydroxy-tetrahydro-furan-2S-yl)-isoxazole-3-carbaldehyde oxime diformate]
4.86	>340	22.53	CCc1cc(C2OC(n3cnc4c(NC(CO)Cc5ccccc5)nc(NCCN5CCOCC5)nc43)C(O)C2O)on1 [Example 51, (2S,3S,4R,5R)-2-(3-Ethyl-isoxazol-5-yl)-5-[6-(1S-hydroxymethyl-2-phenyl-ethylamino)-2-(2-morpholin-4-yl-ethylamino)-purin-9-yl]-tetrahydro-furan-3,4-diol diformate]
21.63	>340	1359.98	CCc1cc(C2OC(n3cnc4c(NCc5ccccc5)nc(NCCc5ccccn5)nc43)C(O)C2O)on1.O=CO.O=CO [Example 52, (2S,3S,4R,5R)-2-(3-Ethyl-isoxazol-5-yl)-5-[6-benzylamino-2-(2-pyridin-2-yl-ethylamino)-purin-yl]-tetrahydro-furan-3,4-diol diformate]

From patent publication US6762170B1, “2-(purin-9-yl)-tetrahydrofuran-3,4-diol derivatives” (SmithKlineBeecham Corporation, priority 1998, dated 2004)
